Test results taken from publication PMC11124822, “Discovery and Anticancer Screening of Novel Oxindole-Based Derivative Bearing Pyridyl Group as Potent and Selective Dual FLT3/CDK2 Kinase Inhibitor” (Pharmaceuticals, 2024).
Read-outs that look alike come from different tables or passages of the source.

What was measured:
UACC-62 = assay: NCI-60 antiproliferative screen (SRB); type: cell-based, human; details: five-dose, 48 h, UACC-62
SN12C = assay: NCI-60 antiproliferative screen (SRB); type: cell-based, human; details: 48 h
A549/ATCC = assay: NCI-60 antiproliferative screen (SRB); type: cell-based, human; details: 48 h
ACHN = assay: NCI-60 antiproliferative screen (SRB); type: cell-based, human; details: 48 h
BT-549 = assay: NCI-60 antiproliferative screen (SRB); type: cell-based, human; details: 48 h
NCI-H322M = assay: NCI-60 antiproliferative screen (SRB); type: cell-based, human; details: five-dose, 48 h, NCI-H322M
LOX IMVI = assay: NCI-60 antiproliferative screen (SRB); type: cell-based, human; details: 48 h; for CC50: read-out: LC50 (the source's name)
TK-10 = assay: NCI-60 antiproliferative screen (SRB); type: cell-based, human; details: 48 h
K-562 = assay: NCI-60 antiproliferative screen (SRB); type: cell-based, human; details: 48 h
NCI-H226 = assay: NCI-60 antiproliferative screen (SRB); type: cell-based, human; details: 48 h
COLO 205 = assay: NCI-60 antiproliferative screen (SRB); type: cell-based, human; details: 48 h
[1] = test system: NCI-60 human cancer cell lines; assay: NCI-60 screen, full panel summary; type: cell-based
Experimental: In a comprehensive test, compounds were assayed at a single dose concentration (10^−5 M) in the full panel of NCI-60 cancer cell lines.

NCI-H23 = assay: NCI-60 antiproliferative screen (SRB); type: cell-based, human; details: 48 h
IGROV1 = assay: NCI-60 antiproliferative screen (SRB); type: cell-based, human; details: five-dose, 48 h, IGROV1

For `O=C1Nc2cc(Cl)ccc2C1=Cc1ccc(OCc2cccnc2)cc1` (mixture of isomers) [Compound 5l, (E/Z)-6-Chloro-3-[4-(pyridin-3-ylmethoxy)benzylidene] indolin-2-one], the GI50 (UACC-62; Homo sapiens) was 7.7 µM, the TGI (UACC-62) was 43.50 µM and the inhibition at 10 µM (SN12C; Homo sapiens, 10 µM single dose, SN12C (Renal), read-out: Growth inhibition (%)) was 66.1%. For the same molecule, the GI50 (SN12C; Homo sapiens, five-dose, SN12C) was 9.74 µM, the CC50 (SN12C; Homo sapiens, five-dose, SN12C, read-out: LC50 (the source's name)) was > 100 µM and the TGI (SN12C; five-dose, SN12C) was 66.60 µM. For the same molecule, the inhibition at 10 µM (A549/ATCC; Homo sapiens, 10 µM single dose, A549/ATCC (NSCLC), read-out: Growth inhibition (%)) was 58.8%, the GI50 (A549/ATCC; Homo sapiens, five-dose, A549/ATCC) was 15.5 µM and the TGI (A549/ATCC; five-dose, A549/ATCC) was >100 µM. For the same molecule, the inhibition at 10 µM (ACHN; Homo sapiens, 10 µM single dose, ACHN (Renal), read-out: Growth inhibition (%)) was 55.1%, the GI50 (ACHN; Homo sapiens, five-dose, ACHN) was 10.8 µM and the TGI (ACHN; five-dose, ACHN) was 75.30 µM. The inhibition at 10 µM (BT-549; Homo sapiens, 10 µM single dose, BT-549 (Breast), read-out: Growth inhibition (%)) was 95.7%, the GI50 (BT-549; Homo sapiens, five-dose, BT-549) was 10.4 µM and the CC50 (BT-549; Homo sapiens, five-dose, BT-549, read-out: LC50 (the source's name)) was > 100 µM. For the same molecule, the TGI (BT-549; five-dose, BT-549) was 46.30 µM, the GI50 (NCI-H322M; Homo sapiens) was 23.2 µM and the TGI (NCI-H322M) was >100 µM. The CC50 (LOX IMVI; Homo sapiens, LOX IMVI, five-dose, LOX IMVI) was 96.9 µM, the inhibition at 10 µM (LOX IMVI; Homo sapiens, 10 µM single dose, LOX IMVI (Melanoma), read-out: Growth inhibition (%)) was 91% and the GI50 (LOX IMVI; Homo sapiens, five-dose, LOX IMVI) was 4.7 µM. For the same molecule, the TGI (LOX IMVI; five-dose, LOX IMVI) was 24.80 µM, the CC50 (LOX IMVI; five-dose, LOX IMVI) was 96.6 µM and the inhibition at 10 µM (TK-10; Homo sapiens, 10 µM single dose, TK-10 (Renal), read-out: Growth inhibition (%)) was 29.4%. The GI50 (TK-10; Homo sapiens, five-dose, TK-10) was 77.1 µM, the CC50 (TK-10; Homo sapiens, five-dose, TK-10, read-out: LC50 (the source's name)) was > 100 µM and the TGI (TK-10; five-dose, TK-10) was >100 µM. The inhibition at 10 µM (K-562; Homo sapiens, K562, 10 µM single dose, K-562 (Leukemia), read-out: Growth inhibition (%)) was 95%, the GI50 (K-562; Homo sapiens, K562, five-dose, K-562) was 3.08 µM and the CC50 (K-562; Homo sapiens, K562, five-dose, K-562, read-out: LC50 (the source's name)) was > 100 µM. For the same molecule, the TGI (K-562; five-dose, K-562) was >100 µM, the inhibition at 10 µM (NCI-H226; Homo sapiens, 10 µM single dose, NCI-H226 (NSCLC), read-out: Growth inhibition (%)) was 62.9% and the GI50 (NCI-H226; Homo sapiens, five-dose, NCI-H226) was 9 µM. The TGI (NCI-H226; five-dose, NCI-H226) was 70.00 µM, the inhibition at 10 µM (COLO 205; Homo sapiens, 10 µM single dose, COLO 205 (Colon), read-out: Growth inhibition (%)) was 96.4% and the GI50 (COLO 205; Homo sapiens, five-dose, COLO 205) was 9.62 µM. For the same molecule, the TGI (COLO 205; five-dose, COLO 205) was >100 µM, the “Positive Cytostatic Effect (cell lines with percent growth from 0 to 50 / total number of cell lines)” value ([1]; 10 µM single dose) was 44/56 and the “Positive Cytotoxic Effect (cell lines with percent growth of <0 / total number of cell lines)” value ([1]; 10 µM single dose) was 4/56. The “Sensitive/Total Cell Lines” value ([1]; 10 µM single dose) was 48/56, the “The Most Sensitive Cell Line” value ([1]; 10 µM single dose) was “SK-MEL-5” and the “number of cell lines with cytostatic effects” value ([1]; 10 µM single dose) was 44. The “number of cell lines with cytotoxic effects” value ([1]; 10 µM single dose) was 4, the “Mean Growth Percent” value ([1]; 10 µM single dose, all NCI-60 cell lines) was 72.81 and the inhibition at 10 µM ([1]; Homo sapiens, 10 µM single dose, read-out: Range of Growth Inhibition on All Cells) was 8.89 to 153%. For the same molecule, the GI50 ([1]; Homo sapiens, five-dose, almost all cell lines, read-out: GI50 values, range over evaluated human cancer types) was 2.7 to 77.1 µM, the CC50 ([1]; Homo sapiens, five-dose, excluding LOX IMVI, SK-MEL-5, SK-MEL-28, read-out: LC50 for most of the examined cancer cells) was > 100 µM and the GI50 ([1]; Homo sapiens, five-dose, full panel, read-out: Full panel MG-MID (GI50)) was 12.2 µM. For the same molecule, the “TGI against the left-over cancer cells” value ([1]; five-dose) was > 100 µM, the inhibition at 10 µM (NCI-H23; Homo sapiens, 10 µM single dose, NCI-H23 (NSCLC), read-out: Growth inhibition (%)) was 75.6% and the GI50 (NCI-H23; Homo sapiens, five-dose, NCI-H23) was 5.93 µM. For the same molecule, the TGI (NCI-H23; five-dose, NCI-H23) was >100 µM, the GI50 (IGROV1; Homo sapiens, IGROV-1) was 10.7 µM and the CC50 (IGROV1; Homo sapiens, IGROV-1, read-out: LC50 (the source's name)) was > 100 µM. It also gave a TGI (IGROV1) of 3.32 µM.
